PubChem BioAssay (NCI)
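Five concentrations, 48 hours, 96-well plates. The concentration for 50% growth inhibition is given as GI50. TGI: total growth inhibition.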

How the values were obtained:
Assay in all cases: NCI anticancer screen, dose series, 48 h; in the data active means GI50 below about 0.43 µM; inactive means the rest
786-0 renal = test system: 786-0 renal
A498 renal = test system: A498 renal
A549 NSCLC = test system: A549 NSCLC
ACHN renal = test system: ACHN renal
BT-549 breast = test system: BT-549 breast
CAKI-1 renal = test system: CAKI-1 renal
CCRF-CEM leukemia = test system: CCRF-CEM leukemia
COLO 205 colon = test system: COLO 205 colon
DU-145 prostate = test system: DU-145 prostate
EKVX NSCLC = test system: EKVX NSCLC
HCC-2998 colon = test system: HCC-2998 colon
HCT-116 colon = test system: HCT-116 colon
HCT-15 colon = test system: HCT-15 colon
HL-60(TB) leukemia = test system: HL-60(TB) leukemia
HOP-62 NSCLC = test system: HOP-62 NSCLC
HOP-92 NSCLC = test system: HOP-92 NSCLC
HS 578T breast = test system: HS 578T breast
HT29 colon = test system: HT29 colon
IGROV1 ovarian = test system: IGROV1 ovarian
K-562 leukemia = test system: K-562 leukemia
KM12 colon = test system: KM12 colon
LOX IMVI melanoma = test system: LOX IMVI melanoma
M14 melanoma = test system: M14 melanoma
MALME-3M melanoma = test system: MALME-3M melanoma
MCF7 breast = test system: MCF7 breast
MDA-MB-231 breast = test system: MDA-MB-231 breast
MDA-MB-435 = test system: MDA-MB-435
MOLT-4 leukemia = test system: MOLT-4 leukemia
NCI-H226 lung = test system: NCI-H226 lung
NCI-H23 lung = test system: NCI-H23 lung
NCI-H460 lung = test system: NCI-H460 lung
NCI-H522 lung = test system: NCI-H522 lung
NCI/ADR-RES ovarian = test system: NCI/ADR-RES ovarian
OVCAR-3 ovarian = test system: OVCAR-3 ovarian
OVCAR-4 ovarian = test system: OVCAR-4 ovarian
OVCAR-5 ovarian = test system: OVCAR-5 ovarian
OVCAR-8 ovarian = test system: OVCAR-8 ovarian
PC-3 prostate = test system: PC-3 prostate
RPMI-8226 leukemia = test system: RPMI-8226 leukemia
RXF 393 renal = test system: RXF 393 renal
SF-268 CNS = test system: SF-268 CNS
SF-295 CNS = test system: SF-295 CNS
SF-539 CNS = test system: SF-539 CNS
SK-MEL-2 melanoma = test system: SK-MEL-2 melanoma
SK-MEL-28 melanoma = test system: SK-MEL-28 melanoma
SK-MEL-5 melanoma = test system: SK-MEL-5 melanoma
SK-OV-3 ovarian = test system: SK-OV-3 ovarian
SN12C renal = test system: SN12C renal
SNB-19 CNS = test system: SNB-19 CNS
SNB-75 CNS = test system: SNB-75 CNS
SR leukemia = test system: SR leukemia
SW-620 colon = test system: SW-620 colon
T-47D breast = test system: T-47D breast
TK-10 renal = test system: TK-10 renal
U251 CNS = test system: U251 CNS
UACC-257 melanoma = test system: UACC-257 melanoma
UACC-62 melanoma = test system: UACC-62 melanoma
UO-31 renal = test system: UO-31 renal

NS(=O)(=O)c1ccc(N=Nc2c(O)[nH]c3ccc(Cl)cc23)cc1
> 20.6 µM: TGI (UO-31 renal)
> 25 µM: TGI (A498 renal) | TGI (A549 NSCLC) | TGI (ACHN renal) | TGI (BT-549 breast) | TGI (CAKI-1 renal) | TGI (CCRF-CEM leukemia) | TGI (COLO 205 colon) | TGI (DU-145 prostate) | TGI (EKVX NSCLC) | TGI (HCC-2998 colon) | TGI (HCT-15 colon) | TGI (HL-60(TB) leukemia) | TGI (HOP-62 NSCLC) | TGI (HOP-92 NSCLC) | TGI (HS 578T breast) | TGI (HT29 colon) | TGI (IGROV1 ovarian) | TGI (K-562 leukemia) | TGI (KM12 colon) | TGI (LOX IMVI melanoma) | TGI (M14 melanoma) | TGI (MALME-3M melanoma) | TGI (MCF7 breast) | TGI (MDA-MB-231 breast) | TGI (MDA-MB-435) | TGI (MOLT-4 leukemia) | TGI (NCI-H226 lung) | TGI (NCI-H23 lung) | TGI (NCI-H460 lung) | TGI (NCI-H522 lung) | TGI (NCI/ADR-RES ovarian) | TGI (OVCAR-4 ovarian) | TGI (OVCAR-5 ovarian) | TGI (OVCAR-8 ovarian) | TGI (PC-3 prostate) | TGI (RPMI-8226 leukemia) | TGI (RXF 393 renal) | TGI (SF-268 CNS) | TGI (SF-295 CNS) | TGI (SK-MEL-2 melanoma) | TGI (SK-MEL-28 melanoma) | TGI (SK-MEL-5 melanoma) | TGI (SN12C renal) | TGI (SNB-19 CNS) | TGI (SR leukemia) | TGI (SW-620 colon) | TGI (T-47D breast) | TGI (U251 CNS) | TGI (UACC-257 melanoma) | TGI (UACC-62 melanoma)
> 23 µM: TGI (TK-10 renal)
> 16.9 µM: TGI (HCT-116 colon)
14.5 µM: TGI (SK-OV-3 ovarian)
> 20.3 µM: TGI (786-0 renal)
inactive: GI50 (786-0 renal) 8.42 µM | GI50 (A498 renal) > 22 µM | GI50 (A549 NSCLC) 11.3 µM | GI50 (ACHN renal) 9.95 µM | GI50 (BT-549 breast) > 16.9 µM | GI50 (CAKI-1 renal) > 17.9 µM | GI50 (CCRF-CEM leukemia) > 7.22 µM | GI50 (COLO 205 colon) > 25 µM | GI50 (DU-145 prostate) 15.5 µM | GI50 (EKVX NSCLC) > 25 µM | GI50 (HCC-2998 colon) 18.3 µM | GI50 (HCT-116 colon) 7.04 µM | GI50 (HCT-15 colon) > 22.1 µM | GI50 (HL-60(TB) leukemia) > 25 µM | GI50 (HOP-62 NSCLC) 13.4 µM | GI50 (HOP-92 NSCLC) > 9.61 µM | GI50 (HS 578T breast) 11.6 µM | GI50 (HT29 colon) > 18.9 µM | GI50 (IGROV1 ovarian) > 19.6 µM | GI50 (K-562 leukemia) > 25 µM | GI50 (KM12 colon) 7.58 µM | GI50 (LOX IMVI melanoma) 9.96 µM | GI50 (M14 melanoma) > 25 µM | GI50 (MALME-3M melanoma) 20.7 µM | GI50 (MCF7 breast) 12.2 µM | GI50 (MDA-MB-231 breast) 8.86 µM | GI50 (MDA-MB-435) > 25 µM | GI50 (MOLT-4 leukemia) > 25 µM | GI50 (NCI-H226 lung) 13.6 µM | GI50 (NCI-H23 lung) 14 µM | GI50 (NCI-H460 lung) 8.62 µM | GI50 (NCI-H522 lung) 5.38 µM | GI50 (NCI/ADR-RES ovarian) 24.5 µM | GI50 (OVCAR-3 ovarian) 4.87 µM | GI50 (OVCAR-4 ovarian) > 21.9 µM | GI50 (OVCAR-5 ovarian) > 25 µM | GI50 (OVCAR-8 ovarian) 12.9 µM | GI50 (PC-3 prostate) > 25 µM | GI50 (RPMI-8226 leukemia) > 25 µM | GI50 (RXF 393 renal) 12.9 µM | GI50 (SF-268 CNS) 17.6 µM | GI50 (SF-295 CNS) > 25 µM | GI50 (SF-539 CNS) 5.29 µM | GI50 (SK-MEL-2 melanoma) > 18.3 µM | GI50 (SK-MEL-28 melanoma) > 25 µM | GI50 (SK-MEL-5 melanoma) 16.1 µM | GI50 (SK-OV-3 ovarian) 6.73 µM | GI50 (SN12C renal) 17.2 µM | GI50 (SNB-19 CNS) > 25 µM | GI50 (SNB-75 CNS) 8.66 µM | GI50 (SR leukemia) 6.13 µM | GI50 (SW-620 colon) > 22.4 µM | GI50 (T-47D breast) > 25 µM | GI50 (TK-10 renal) 5.78 µM | GI50 (U251 CNS) 6.64 µM | GI50 (UACC-257 melanoma) > 25 µM | GI50 (UACC-62 melanoma) > 15.2 µM | GI50 (UO-31 renal) 6.46 µM
> 21.9 µM: TGI (SF-539 CNS)
14.2 µM: TGI (OVCAR-3 ovarian)
24.9 µM: TGI (SNB-75 CNS)
